The source of these data is patent US20160169914A1, “KINETICS BIOMARKERS FOR NEURODEGENERATION” (KineMed, Inc., priority 2014, published 2016).

SMILES strings stand for the structures.

The conditions of data set [1]: cited from earlier work.
The next data set concerns ALS. As to conditions: approved by the FDA in 1995; cited from earlier work.
A short description of data set [2]: Tolerability of high body water enrichments of 2H2O. It is filed as in vivo, human. As to conditions: 1-10% of total body water labeled, maintained for weeks or months; humans (>100 persons) and experimental animals. From the text:
Relatively high body water enrichments of ^2H2O (e.g., 1-10% of the total body water is labeled) may be achieved relatively inexpensively using the techniques of the invention. […] This finding in a large number of human subjects (>100 persons) is contrary to previous concerns about vestibular toxicities at high doses of ^2H2O. One of the Applicants has discovered that as long as rapid changes in body water enrichment are prevented (e.g., by initial administration in small, divided doses), high body water enrichments of ^2H2O can be maintained with no toxicities. For example, the low expense of commercially available ^2H2O allows long-term maintenance of enrichments in the 1-5% range at relatively low expense (e.g., calculations reveal a lower cost for 2 months labeling at 2% ^2H2O enrichment, and thus 7-8% enrichment in the alanine precursor pool, than for 12 hours labeling of ^2H-leucine at 10% free leucine enrichment, and thus 7-8% enrichment in leucine precursor pool for that period).

For data set [3], the system named is BDNF (brain-derived neurotrophic factor) transport rate. Conditions: PD patients.
Method: Statistical significance was assessed by 1-way ANOVA with Tukey post-hoc testing. A P value less than 0.05 was considered statistically significant (* P<0.05). […] Solid lines indicate regression; dashed lines indicate 95% confidence intervals. The statistical test that generated both the r^2 and P values was a linear regression (mean±SD were generated by technical replicates of repeated sample preparations and analyses).
The study group consisted of symptomatic PD patients, all on standard anti-PD medications, and 6 non-PD volunteers. […] Unified PD Rating Scale, PART III, and Hoehn and Yahr scores were obtained for each subject. […] Compliance to the experimental protocol was monitored by the clinical staff through collection of blood plasma samples for body water enrichment. […]
Purified cargo proteins were hydrolyzed by treatment with 6N HCl for 16 hours at 110° C. Protein derived amino acids were derivatized to pentafluorobenzyl derivatives, and ^2H incorporation in alanine released from total vesicular proteins was measured by GC/MS, as described elsewhere (Busch R, et al., Biochim Biophys Acta., 1760(5):730-44 (2006)). ^2H enrichment was calculated as the percent increase over the natural abundance of alanine derivative present as the (M+1) mass isotopomer (EM1) (Busch R, et al., Biochim Biophys Acta., 1760(5):730-44 (2006)). […]

With `COc1ccc2c(c1OC)C(=O)O[C@@H]2[C@H]1c2c(cc3c(c2OC)OCO3)CCN1C` [Noscapine], the “half-life in CNS tissue” value in data set [1] (CNS tissue (brain and spinal cord) and PNS) is reported as “long half-life”. Besides, the “blood brain barrier penetration” value in data set [1] (in vivo) is listed as “penetrates the blood brain barrier”. In the case of `Nc1nc2ccc(OC(F)(F)F)cc2s1` [Riluzole], in the data set with ALS, the disease progression entry was “only delays disease progression modestly”. With `[2H]O[2H]` [^2H2O], the “toxicity at high body water enrichment” value in data set [2] was “without any evidence of toxicity”. Take `C#CCN[C@@H]1CCc2ccccc21` [rasagiline]: in data set [3] (rasagiline 1 mg/day, 1-way ANOVA with Tukey post-hoc, * P<0.05, FIG. 7 panel A), the “deficits in transport rates of BDNF in CSF, compared to patients not treated with Azilect” value is “reduced deficits in transport rates of BDNF”. The “correlation between reduced delays in rates of BDNF transport and duration of treatment” value in data set [3] (duration of treatment in years prior to LP, linear regression, FIG. 7 panel B) is “strong correlation”.
